The record followed here is PMC8179109, “Introducing affinity and selectivity into galectin-targeting nanoparticles with fluorinated glycan ligands” (Chemical Science, 2020).

In this experiment the target is T1, BiGalHexNAcP (Bifidobacterium longum, UniProt A0ACD7UTG9).
T1 construct: gene BLIJ_2251
The experiment in a line: one-pot two-enzyme synthesis of disaccharide (reverse phosphorolysis). Type of experiment: biochemical. Particulars: acceptor; donor galactose 1-phosphate formed in situ by BiGalK; isolated on semi-preparative scale.

Structures are written as SMILES.

T1 sequence (A0ACD7UTG9 entry or part of it): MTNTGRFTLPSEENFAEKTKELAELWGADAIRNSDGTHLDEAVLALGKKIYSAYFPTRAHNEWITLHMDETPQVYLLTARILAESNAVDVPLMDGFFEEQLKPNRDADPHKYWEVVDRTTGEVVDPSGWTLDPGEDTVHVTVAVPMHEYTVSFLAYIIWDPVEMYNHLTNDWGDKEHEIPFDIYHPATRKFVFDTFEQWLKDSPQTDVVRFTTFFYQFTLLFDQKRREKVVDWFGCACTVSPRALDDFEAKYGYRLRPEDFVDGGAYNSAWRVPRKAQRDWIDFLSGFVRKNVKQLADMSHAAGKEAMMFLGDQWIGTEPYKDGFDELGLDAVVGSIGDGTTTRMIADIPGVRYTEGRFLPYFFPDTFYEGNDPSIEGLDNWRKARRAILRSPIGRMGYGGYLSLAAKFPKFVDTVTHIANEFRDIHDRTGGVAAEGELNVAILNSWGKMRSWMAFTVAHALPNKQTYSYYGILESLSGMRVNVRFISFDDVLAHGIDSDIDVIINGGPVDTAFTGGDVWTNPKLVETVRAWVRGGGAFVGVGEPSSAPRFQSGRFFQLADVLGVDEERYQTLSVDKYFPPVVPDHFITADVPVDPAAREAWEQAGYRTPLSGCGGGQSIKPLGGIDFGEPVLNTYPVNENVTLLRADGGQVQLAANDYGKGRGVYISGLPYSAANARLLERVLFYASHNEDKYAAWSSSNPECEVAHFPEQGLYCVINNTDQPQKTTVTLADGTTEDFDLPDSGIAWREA

As for `CC(=O)N[C@H]1[C@H](OCCCN=[N+]=[N-])O[C@H](CO)[C@@H](O)[C@@H]1O[C@@H]1O[C@H](CO)[C@H](O)[C@H](O)[C@H]1O` [compound 15], the “one-pot two-enzyme synthesis of disaccharide (reverse phosphorolysis)” value was “Lacto-N-biose and fluorinated derivatives were efficiently synthesized on semi-preparative scale”.
